The target in test [1] is T1, GppNHp-loaded KRAS4b (amino acids 1-169) G12C/C118S protein (Homo sapiens, UniProt P01116, C118S/G12C).
T1 construct: KRAS4b (amino acids 1-169) G12C/C118S protein; made in house
As to the kind of experiment: Covalent cysteine 12 modification by MALDI-TOF MS, GppNHp-loaded KRAS G12C. The test is classed as binding. The conditions noted are these: 15 minutes reaction time point. The protocol:
(§1) Biological Example 1: Covalent Cysteine 12 Modification Analysis Using Matrix Assisted Laser Desorption Ionization-Time of Flight Mass Spectrometry (MALDI-TOF MS)
(§2) MALDI-TOF MS analysis was performed using 1 μM protein (KRAS G12C), and 1:2.5 protein to compound ratio.
(§3) Reaction: 1 μM of GppNHp, GTP, or GDP-loaded KRAS4b (amino acids 1-169) G12C/C118S protein (produced in-house by Protein Expression Laboratory, FNLCR/Leidos Biomed) in 20 mM 4-(2-hydroxyethyl)-1-piperazineethanesulfonic acid (HEPES) buffer containing 150 mM NaCl, 1 mM MgCl2, pH 7.3 was prepared freshly before assay. Twelve-μL aliquots of protein were dispensed onto low volume 384-well plate, then 30 nL of tested compounds from 1 mM DMSO stocks were added to appropriate wells using ECHO 555 acoustic liquid handler (Labcyte Inc.). For each reaction/assay, three blanks were prepared by mixing 12 μL of protein solution with 30 nL DMSO. The contents of the wells were carefully mixed by aspiration, and then each plate was sealed with an adhesive cover, centrifuged at 2000 g for 1 minute, and kept in the dark at room temperature until 5 min, 15 min, 30 min, 2 h, or 6 h collections.
(§4) Target pretreatment: Before each assay MALDI target (Bruker MPT 384 ground steel BC) was pre-treated by pipetting on each spot 0.75 μL of saturated sinapinic acid in acetonitrile (ACN).
(§5) Sample preparation: At collection time point, 2 μL of reaction mixtures were pipetted out into 15 μL MALDI matrix solution (saturated solution of sinapinic acid in 1:1 ACN:water solution containing 0.75% trifluoroacetic acid (TFA)) deposited on 384 well polypropylene plate. Resulting solution was mixed by aspiration, centrifuged at 2000 g for 1 minute, then 1.5 μL aliquots were dispensed on pre-treated MALDI target using Beckman Coulter Biomek FXP 96/384-Span-8 Laboratory Automation Workstation. Finally, the MALDI target was dried under mild vacuum to produce spots with fine crystalline structure.
(§6) Measurements: MALDI-TOF measurements were performed on a Bruker Daltonics rapiflex Tissuetyper TOF-TOF mass spectrometer using linear mode and mass range from 18.6 to 21.6 kDa. Detector gain was set to 3.3×(483 V), sample rate to 5 GS/s, real time smoothing to medium (175 MHz), laser smart beam pattern was set to: “MS Thin Layer M5”, and the laser frequency was 10000 Hz. Spectra were automatically collected using custom AutoXecute method. Laser power was auto adjusted using fuzzy control. The peak selection range was set to be between 19000 and 21500 Da. Peak evaluation uses half width parameter set to be smaller than 40 Da for processed spectrograms (centroid peak detection; smoothed by SavitzkyGolay algorithm using 7 m/z width and 2 cycles; baseline was subtracted using median algorithm with flatness 1 and median level 0.01). Fuzzy control used Proteins/Oligonucleotides protocol with minimum half width 1/10 times above threshold. Up to 40000 satisfactory shots were collected in 10000 shot steps. Dynamic termination was implemented to finish data collection when peak signal/noise ratio was reaching value of 50.
(§7) Spectra processing: Spectra were smoothed by SavitzkyGolay algorithm using 7 m/z width and three cycles. Centroid peak detection algorithm was used with signal to noise threshold set to 6, relative intensity threshold 4%, peak width 10 m/z and median baseline subtraction using flatness of 1 and median level of 0.01. Peak intensity and area under the peak were evaluated and recorded for all peaks between 19,300 Da and 21,550 Da.
(§8) Calculation of percent modification: Percent modification was calculated as a ratio of peak height for protein modified by compound to sum of peak height of remaining protein plus peak height for protein modified by compound. If multiple modifications were observed each was calculated as a ratio of peak height for given modification versus sum of peak heights for all observed protein species. Data reported in Table 4 are from 15 minutes reaction time point. […]

The target of test [2] is T2, GTP-loaded KRAS4b (amino acids 1-169) G12C/C118S protein (Homo sapiens, UniProt P01116, C118S/G12C).
T2 construct: KRAS4b (amino acids 1-169) G12C/C118S protein; made in house
The test can be described thus: Covalent cysteine 12 modification by MALDI-TOF MS, GTP-loaded KRAS G12C. The conditions noted are these: 15 minutes reaction time point. The test is classed as binding. On the procedure:
as §1, §2, §3, §4, §5, §6, §7, §8

For test [3], the target named is T3, GDP-loaded KRAS4b (amino acids 1-169) G12C/C118S protein (Homo sapiens, UniProt P01116, C118S/G12C).
T3 construct: KRAS4b (amino acids 1-169) G12C/C118S protein; made in house
The test can be described thus: Covalent cysteine 12 modification by MALDI-TOF MS, GDP-loaded KRAS G12C. The test is classed as binding. The conditions noted are these: 15 minutes reaction time point. The protocol:
as §1, §2, §3, §4, §5, §6, §7, §8

The subject of the next test is pERK in NCI-H358 cells. As to the kind of experiment: Cell-based pERK HTRF assay (pERK inhibition in H358 cells). The conditions noted are these: 30 min incubation. On the procedure:
Biological Example 3: Cell-Based pERK HTRF Assay
pERK assays (Perkin Elmer) were used to determine the effectiveness of compounds of the present disclosure in disrupting KRAS G12C protein/effector signaling in cells.
On Day 1, cells (NCI-H358) were seeded into 96-well plates at 4×10^4 cells/well in complete growth media (RPMI, 10% FBS).
On Day 2, cells were treated with compounds at 0.25% DMSO. The source plate was created with compounds diluted in media at 5-fold the final assay concentration. The compounds were run in a 9-point concentration curve starting at 75 μM, with a 3-fold dilution between concentrations. 20 μL was transferred onto the cell plates (final volume in wells was 100 μL). Plates were harvested after 30 min incubation by aspirating media and adding kit-supplied 1× supplemented lysis buffer to all wells (75 μl per well). Plates were then placed on a plate shaker and incubated at 850 rpm for an additional 30 min.
Antibody mixture solution was prepared by diluting aliquoted d2 and Eu Cryptate antibodies 1:20 in kit supplied detection buffer, then mixed the diluted antibodies solutions (1:1 v:v). 4 μL of this solution was then added to a 384-well detection plate (Perkin Elmer; 6008230).
Samples were homogenized by pipetting up and down and then transferred (16 μL of cell lysates) from the 96-well cell culture plate to two wells of the HTRF 384-well detection plate containing the antibody solution. Plates were centrifuged (524 g for […]) and allowed to incubate between 4 and 24 h at room temperature. Maximum signal is reached after 4 h incubation time and remains stable over a period of 24 hours. Therefore, readings can be made between 4 and 24 h of incubation. Plates were centrifuged again (524 g for 1 min), and analyzed on the En Vision plate reader using the following settings: Excitation 320 nm, Bandwidth 75 nm; Emission 615 nm, Bandwidth 85 nm; Gain 100%; Flashes 100; Lag 60 μs.
The percent of modification of GppNHp, GTP, or GDP loaded KRAS G12C by MALDI-TOF MS, biochemical Raf1 RBD-KRAS G12C-GppNHp disruption assay IC50, and pERK inhibition IC50 of selected compounds described herein are shown in Table 4. For percent of modification at 15 minutes (MALDI-TOF MS) of GppNHp, GTP, or GDP loaded KRAS G12C: A: percent of modification ≥70%; B: 50≤percent of modification <70%; C: 10%≤percent of modification <50%; D: percent of modification <10%. […] For pERK inhibition in H358 cell assay: A: IC50≤0.1 μM; B: 0.1 μM<IC50≤1 μM; C: IC50>1 μM. Blanks in the table represent that compound was not tested in the indicated assay.

As usually defined, the pIC50 is the negative decadic logarithm of the IC50, by convention in mol/L.

The structures appear in SMILES notation. pIC50: −log10 of the molar value. Where only a bound is given, the exact number is not on record here.

As for `C=CC(=O)N1CC[C@@H](N(C)c2nc(OC[C@@]34CCCN3C[C@H](F)C4)nc3c(F)c(-c4ccc(F)c5sc(N)c(C#N)c45)c(Cl)cc23)[C@H]1C` (atropisomer, axis not shown) [Compound 51], in test [1], the “GppNHp-KRAS G12C percent of modification” value was “A (percent of modification ≥70%)”. Also, the “GTP-KRAS G12C percent of modification” value in test [2] was “A (percent of modification ≥70%)”.
As for `C=CC(=O)N1CC[C@@H](N(C)c2nc(OC[C@@]34CCCN3C[C@H](F)C4)nc3c(F)c(-c4ccc(F)c5sc(N)c(C#N)c45)c(C(F)(F)F)cc23)[C@@H]1C` (atropisomer, axis not shown) [Compound 70], in test [3], the “GDP-KRAS G12C percent of modification” value is given as “A (percent of modification ≥70%)”. For the same compound, the “GppNHp-KRAS G12C percent of modification” value in test [1] is given as “A (percent of modification ≥70%)”. In test [2], the “GTP-KRAS G12C percent of modification” value is recorded as “A (percent of modification ≥70%)”.
As for `C[C@@H]1[C@H](N(C)c2nc(OC[C@@]34CCCN3C[C@H](F)C4)nc3c(F)c(-c4ccc(F)c5sc(N)c(C#N)c45)c(C(F)(F)F)cc23)CCN1C(=O)[C@@H](F)Cl` (atropisomer, axis not shown) [Compound 184], the negative-log IC50 (pIC50) in the test with pERK in NCI-H358 cells (Homo sapiens, NCI-H358, 0.5 h) was 6.00 to 7.00. Further, the “GDP-KRAS G12C percent of modification” value in test [3] is listed as “D (percent of modification <10%)”. Also, the “GppNHp-KRAS G12C percent of modification” value in test [1] was “D (percent of modification <10%)”. Moreover, the “GTP-KRAS G12C percent of modification” value in test [2] is on record as “D (percent of modification <10%)”.
In the test with pERK in NCI-H358 cells, `C[C@@H]1[C@H](N(C)c2nc(OC[C@@]34CCCN3C[C@H](F)C4)nc3c(F)c(-c4ccc(F)c5sc(N)c(C#N)c45)c(C(F)(F)F)cc23)CCN1C(=O)[C@@H](F)Cl` (atropisomer, axis not shown) [Compound 185] showed a negative-log IC50 (pIC50) of more than 7.00. Moreover, the “GDP-KRAS G12C percent of modification” value in test [3] was “A (percent of modification ≥70%)”. Moreover, the “GppNHp-KRAS G12C percent of modification” value in test [1] was “A (percent of modification ≥70%)”. Also, the “GTP-KRAS G12C percent of modification” value in test [2] is on record as “A (percent of modification ≥70%)”.
With `C[C@@H]1[C@H](N(C)c2nc(OC[C@@]34CCCN3C[C@H](F)C4)nc3c(F)c(-c4ccc(F)c5sc(N)c(C#N)c45)c(C(F)(F)F)cc23)CCN1C(=O)[C@H](F)Cl` (atropisomer, axis not shown; (aS)) [Compound 182, 2-amino-4-((R)-4-(((2R,3R)-1-((R)-2-chloro-2-fluoroacetyl)-2-methylpyrrolidin-3-yl)(methyl)amino)-8-fluoro-2-(((2R,7aS)-2-fluorotetrahydro-1H-pyrrolizin-7a(5H)-yl)methoxy)-6-(trifluoromethyl)quinazolin-7-yl)-7-fluorobenzo[b]thiophene-3-carbonitrile], the pIC50 with pERK in NCI-H358 cells (Homo sapiens, NCI-H358, 0.5 h) was 6.00 to 7.00. Besides, in test [3], the “GDP-KRAS G12C percent of modification” value was “D (percent of modification <10%)”. Moreover, in test [1], the “GppNHp-KRAS G12C percent of modification” value is “D (percent of modification <10%)”. Also, the “GTP-KRAS G12C percent of modification” value in test [2] is recorded as “D (percent of modification <10%)”.
For `C=CC(=O)N1CC[C@@H](N(C)c2nc(OC[C@@]34CCCN3C[C@H](F)C4)nc3c(F)c(-c4ccc(F)c5sc(N)c(C#N)c45)ccc23)[C@H]1C` [Compound 13], the “GDP-KRAS G12C percent of modification” value in test [3] was “A (percent of modification ≥70%)”. The “GppNHp-KRAS G12C percent of modification” value in test [1] is “A (percent of modification ≥70%)”. The “GTP-KRAS G12C percent of modification” value in test [2] was “A (percent of modification ≥70%)”.
On to `C=CC(=O)N1CC[C@@H](N(CC)c2nc(OC[C@@]34CCCN3C[C@H](F)C4)nc3cc(-c4ccc(F)c5sc(N)c(C#N)c45)c(F)cc23)[C@H]1C` [Compound 21, 4-(4-(((2R,3R)-1-acryloyl-2-methylpyrrolidin-3-yl)(ethyl)amino)-6-fluoro-2-(((2R,7aS)-2-fluorotetrahydro-1H-pyrrolizin-7a(5H)-yl)methoxy)quinazolin-7-yl)-2-amino-7-fluorobenzo[b]thiophene-3-carbonitrile], for which the “GDP-KRAS G12C percent of modification” value in test [3] was “A (percent of modification ≥70%)”. Moreover, the “GppNHp-KRAS G12C percent of modification” value in test [1] is “A (percent of modification ≥70%)”. In addition, the “GTP-KRAS G12C percent of modification” value in test [2] was “A (percent of modification ≥70%)”.
On to `C=CC(=O)N1C[C@H](C)N(c2nc(OC[C@]34CCCN3C[C@@H](F)C4)nc3c(F)c(-c4ccc(F)c5sc(N)c(C#N)c45)c(C(F)(F)F)cc23)C[C@H]1C` [Compound 26], for which the “GDP-KRAS G12C percent of modification” value in test [3] was “C (10%≤percent of modification <50%)”. Further, the “GppNHp-KRAS G12C percent of modification” value in test [1] is “B (50≤percent of modification <70%)”.
For the compound `C=CC(=O)N1CC[C@@H](N(CC)c2nc(OC[C@@]34CCCN3C[C@H](F)C4)nc3c(F)c(-c4ccc(F)c5sc(N)c(C#N)c45)c(Cl)cc23)[C@H]1C` [Compound 85], the negative logarithm of the IC50 (pIC50) in the test on pERK in NCI-H358 cells (Homo sapiens, NCI-H358, 0.5 h) is more than 7.00. Moreover, the “GppNHp-KRAS G12C percent of modification” value in test [1] is given as “A (percent of modification ≥70%)”. In test [2], the “GTP-KRAS G12C percent of modification” value is given as “B (50≤percent of modification <70%)”.
As for `C=CC(=O)N1CC[C@@H](N(C)c2nc(O[C@@H](C)[C@@H]3C[C@@H](OC)CN3C)nc3c(F)c(-c4ccc(F)c5sc(N)c(C#N)c45)c(C(F)(F)F)cc23)[C@H]1C` [Compound 192], the “GDP-KRAS G12C percent of modification” value in test [3] is reported as “A (percent of modification ≥70%)”. Further, the “GppNHp-KRAS G12C percent of modification” value in test [1] is given as “A (percent of modification ≥70%)”. The “GTP-KRAS G12C percent of modification” value in test [2] was “A (percent of modification ≥70%)”.
